According to publication PMC3856088, “Small Molecule Binding, Docking, and Characterization of the Interaction between Pth1 and Peptidyl-tRNA” (International Journal of Molecular Sciences, 2013):

Molecular target: T1, E. coli Pth1 (Escherichia coli, UniProt P0A7D1)
T1 construct: gene pth; wild type, 15N-labelled, expressed in E. coli W3110, purified on His-Trap FF (tag not described), 21 kDa monomer
Assay: 1H-15N HSQC NMR titration, chemical shift perturbation mapping
Details: 20 mM Bis-Tris, 100 mM NaCl, 2 mM TCEP, pH 6.6, 25 °C; 200 uM 15N Pth1; ligand:protein up to 64:1; site opposite the substrate binding face

T1 sequence (P0A7D1 2-194): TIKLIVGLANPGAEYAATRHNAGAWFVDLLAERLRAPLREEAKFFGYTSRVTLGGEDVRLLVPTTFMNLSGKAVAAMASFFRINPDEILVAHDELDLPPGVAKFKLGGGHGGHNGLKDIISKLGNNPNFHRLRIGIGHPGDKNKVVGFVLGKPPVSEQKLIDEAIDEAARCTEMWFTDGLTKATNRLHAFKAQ

SMILES: c1cc2c(cc1CN1CCNCC1)OCO2 [piperonylpiperazine]
- 1H-15N HSQC NMR titration, chemical shift perturbation mapping: The binding of piperonylpiperazine to wild type E. coli Pth1 was studied by NMR spectroscopy
